Some test systems named below: UO-31 renal; PC-3 prostate; SN12C renal; SK-MEL-2 melanoma; OVCAR-4 ovarian; OVCAR-8 ovarian; UACC-257 melanoma; HS 578T breast; U251 CNS; BT-549 breast.
Common to all, as to assay: inhibition of tumour cell growth, NCI panel, 48 h

From PubChem BioAssay (NCI) come the findings set out here.

Structures are written as SMILES.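 1) Cells in 96-well plates. 2) Compound, 48 h, 5 concentrations. 3) Linear interpolation between surrounding doses. 4) Unreached endpoint = highest concentration. GI50 = concentration required for 50% inhibition of growth. Definition used: TGI = concentration required for complete inhibition of growth.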 Where only a bound is given, the exact number is not on record here.

Take `O=C(NCCOCCOCCOCCNC(=O)c1cc2c(o1)C(=O)c1ccccc1C2=O)NC12CC3CC(CC(C3)C1)C2`: the GI50 in the assay on UO-31 renal was 1690 nM; in the assay with PC-3 prostate, 1950 nM; in the assay with SN12C renal, 1340 nM; with SK-MEL-2 melanoma, 2150 nM; with OVCAR-4 ovarian, 1020 nM; with OVCAR-8 ovarian, 1440 nM. Further, the GI50 in the assay on UACC-257 melanoma is 1360 nM; in the assay on HS 578T breast, 2180 nM; in the assay on U251 CNS, 2040 nM; in the assay on BT-549 breast, 1500 nM. The TGI in the assay with UO-31 renal was 3.77 µM; in the assay with PC-3 prostate, 13.4 µM; in the assay on SN12C renal, 2.71 µM; in the assay on SK-MEL-2 melanoma, 5.46 µM; in the assay on OVCAR-4 ovarian it was 2.27 µM; with OVCAR-8 ovarian, 8.34 µM. Besides, the TGI in the assay with UACC-257 melanoma was 2.83 µM; in the assay with HS 578T breast, 6.85 µM; with U251 CNS it was 5000 nM; in the assay on BT-549 breast, 3.25 µM.
Turning to `Cc1nc2sc3c(N)ncnc3c2c(C)c1C`, the GI50 in the assay on UO-31 renal, in the assay on PC-3 prostate, in the assay on SN12C renal, in the assay with SK-MEL-2 melanoma, in the assay on OVCAR-4 ovarian and in the assay on OVCAR-8 ovarian was greater than 25000 nM in each case. The GI50 in the assay on UACC-257 melanoma was greater than 25000 nM; with HS 578T breast, 24900 nM; in the assay on U251 CNS, greater than 25000 nM; in the assay with BT-549 breast, greater than 25000 nM. The TGI in the assay with UO-31 renal, with PC-3 prostate, with SN12C renal, with SK-MEL-2 melanoma, with OVCAR-4 ovarian and in the assay with OVCAR-8 ovarian was greater than 25 µM each time. For the same molecule, the TGI was greater than 25 µM in the assay on UACC-257 melanoma, greater than 25 µM in the assay with HS 578T breast, greater than 25000 nM in the assay on U251 CNS and greater than 25 µM in the assay on BT-549 breast.
Take `CC(=O)/C(Br)=C/c1ccc(Br)o1`: the GI50 in the assay on UO-31 renal is 10200 nM; with PC-3 prostate, 8940 nM; in the assay on SN12C renal it was 8110 nM; in the assay on SK-MEL-2 melanoma, 8590 nM; in the assay on OVCAR-4 ovarian it was 9350 nM; in the assay on OVCAR-8 ovarian, 3330 nM. Also, the GI50 was 6050 nM in the assay on UACC-257 melanoma, 2390 nM in the assay on HS 578T breast, 14400 nM with U251 CNS and 5940 nM with BT-549 breast. The TGI with UO-31 renal is 29.1 µM; in the assay with PC-3 prostate, 27.1 µM; in the assay with SN12C renal, 26.7 µM; in the assay on SK-MEL-2 melanoma, 23.9 µM; in the assay on OVCAR-4 ovarian, 22 µM; in the assay on OVCAR-8 ovarian, greater than 35.8 µM. The TGI in the assay with UACC-257 melanoma came to 19.2 µM; in the assay on HS 578T breast, 7.22 µM; in the assay on U251 CNS, 27800 nM; in the assay with BT-549 breast it was 18.6 µM.
In the case of `CCOC(=O)c1c(C)nc2c(c1N)/C(=C/c1ccccn1)C(=O)N2Cc1ccccc1`, the GI50 in the assay on UO-31 renal was 691 nM; in the assay with PC-3 prostate, 1170 nM; with SN12C renal, 1150 nM; in the assay with SK-MEL-2 melanoma it was 1160 nM; in the assay with OVCAR-4 ovarian, 1510 nM; in the assay on OVCAR-8 ovarian, 1650 nM. The GI50 in the assay on HS 578T breast is 2820 nM; with U251 CNS it was 948 nM; in the assay on BT-549 breast, 1110 nM. Further, the TGI is 1.37 µM in the assay on UO-31 renal; 2.64 µM in the assay on PC-3 prostate; 3.09 µM in the assay on SN12C renal; 3.01 µM with SK-MEL-2 melanoma; greater than 50 µM in the assay with OVCAR-4 ovarian; greater than 50 µM in the assay on OVCAR-8 ovarian. In addition, the TGI with HS 578T breast is greater than 50 µM; in the assay with U251 CNS, 1720 nM; in the assay with BT-549 breast it was 3.09 µM.
In the case of `COc1ccccc1[As]=[As]c1ccccc1OC` (configuration not stated), the GI50 in the assay with UO-31 renal is 92.3 nM; in the assay with PC-3 prostate, 61.9 nM; with SN12C renal it was 48.9 nM; in the assay with SK-MEL-2 melanoma, 157 nM; with OVCAR-4 ovarian it was 37.2 nM; with OVCAR-8 ovarian it was 50.7 nM. Further, the GI50 with UACC-257 melanoma is 77.5 nM; with HS 578T breast, 37.8 nM; in the assay on U251 CNS, 14.5 nM; in the assay with BT-549 breast, 58.2 nM. The TGI in the assay on UO-31 renal was determined as 0.24 µM; in the assay with PC-3 prostate it was 0.195 µM; in the assay on SN12C renal, 0.179 µM; in the assay with SK-MEL-2 melanoma it was 0.3 µM; with OVCAR-4 ovarian, 0.146 µM; in the assay with OVCAR-8 ovarian it was 0.194 µM. Moreover, the TGI was 0.218 µM in the assay on UACC-257 melanoma, 0.334 µM with HS 578T breast, 31.1 nM in the assay with U251 CNS and 0.182 µM with BT-549 breast.
Turning to `Oc1ccc(C(O)(c2ccccc2)c2ccccc2)c2ccccc12`, the TGI came to 11.6 µM with UO-31 renal; 14.2 µM in the assay with PC-3 prostate; 6.87 µM in the assay with SN12C renal; 7.25 µM in the assay with SK-MEL-2 melanoma; 20.7 µM in the assay on OVCAR-4 ovarian; 23.7 µM in the assay with UACC-257 melanoma. The figures for the TGI in the assay on HS 578T breast, with U251 CNS and with BT-549 breast were 44.8 µM, 2910 nM and 26.1 µM, respectively.
Turning to `CCC(=O)N1C/C(=C/c2ccc(Br)cc2)C(=O)/C(=C/c2ccc(Br)cc2)C1`, the GI50 in the assay with UO-31 renal is 607 nM; with PC-3 prostate, 632 nM; with SN12C renal, 424 nM; with SK-MEL-2 melanoma it was 1930 nM; with OVCAR-4 ovarian it was 1010 nM; in the assay on OVCAR-8 ovarian, 499 nM. The GI50 was 1630 nM with UACC-257 melanoma, 644 nM with HS 578T breast, 240 nM with U251 CNS and 653 nM in the assay on BT-549 breast. Further, the TGI in the assay with UO-31 renal stood at 1.5 µM; with PC-3 prostate it was 2.29 µM; in the assay with SN12C renal, 1.58 µM; with SK-MEL-2 melanoma, 4 µM; with OVCAR-4 ovarian it was 3.75 µM; in the assay with OVCAR-8 ovarian, 2.88 µM. Also, the TGI with UACC-257 melanoma turned out to be 3.47 µM; in the assay on HS 578T breast it was 4.12 µM; with U251 CNS, 763 nM; with BT-549 breast it was 1.39 µM.
Consider `CCN(CC)CCN1c2nc3ccccc3cc2Sc2cc3ccccc3nc21`, for which the GI50 with UO-31 renal was 970 nM; with PC-3 prostate it was 1710 nM; in the assay with SN12C renal, 2280 nM; in the assay with SK-MEL-2 melanoma it was 1690 nM; in the assay with OVCAR-4 ovarian, 2740 nM; with OVCAR-8 ovarian it was 2430 nM. The GI50 in the assay with UACC-257 melanoma was 2040 nM; with HS 578T breast it was 1730 nM; with U251 CNS it was 1950 nM; in the assay with BT-549 breast, 2830 nM. Besides, the TGI was 5.09 µM in the assay on UO-31 renal; 4.84 µM in the assay on PC-3 prostate; 12.2 µM in the assay on SN12C renal; 4.4 µM with SK-MEL-2 melanoma; 13.4 µM in the assay on OVCAR-4 ovarian; 8.15 µM in the assay with OVCAR-8 ovarian. Further, the TGI in the assay on UACC-257 melanoma was 4.06 µM; in the assay on HS 578T breast, 4.61 µM; with U251 CNS, 4480 nM; in the assay on BT-549 breast, 12.2 µM.
